Experimental data taken from US11618743B2, “Herbicidal compounds” (SYNGENTA PARTICIPATIONS AG, priority 2017, dated 2023).

Columns and labels:
Test in all cases: Post-emergence efficacy, Method A
Type in all cases: in vivo
[1] = test system: Amaranthus palmeri (AMAPA); conditions: Application rate 500 g/Ha, evaluated after 13 days; for Control of weed species AMAPA after post-emergence application (100=total damage to plant; 0=no damage to plant): Method A
How it was run: (§1)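 After 14 days' growth in pots, plants were treated by spray with compound diluted from a 50 g/l IF50 stock concentrate into 0.25% or 1% Empicol ESC70 + 1% ammonium sulphate. Thirteen days later, injury was scored 0–100.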

Lolium perenne (LOLPE) = conditions: Application rate 500 g/Ha, evaluated after 13 days; for Control of weed species LOLPE after post-emergence application (100=total damage to plant; 0=no damage to plant): Method A
How it was run: as §1

Setaria faberi (SETFA) = conditions: Application rate 500 g/Ha, evaluated after 13 days; for Control of weed species SETFA after post-emergence application (100=total damage to plant; 0=no damage to plant): Method A
How it was run: as §1

Eleusine indica (ELEIN) = conditions: Application rate 500 g/Ha, evaluated after 13 days; for Control of weed species ELEIN after post-emergence application (100=total damage to plant; 0=no damage to plant): Method A
How it was run: as §1

[2] = test system: Euphorbia heterophylla (EPHHL); conditions: Application rate 500 g/Ha, evaluated after 13 days; for Control of weed species EPHHL after post-emergence application (100=total damage to plant; 0=no damage to plant): Method A
How it was run: as §1

[3] = test system: Digitaria sanguinalis (DIGSA); conditions: Application rate 500 g/Ha, evaluated after 13 days; for Control of weed species DIGSA after post-emergence application (100=total damage to plant; 0=no damage to plant): Method A
How it was run: as §1

[4] = test system: Echinochloa crus-galli (ECHCG); conditions: Application rate 500 g/Ha, evaluated after 13 days; for Control of weed species ECHCG after post-emergence application (100=total damage to plant; 0=no damage to plant): Method A
How it was run: as §1

[5] = test system: Chenopodium album (CHEAL); conditions: Application rate 500 g/Ha, evaluated after 13 days; for Control of weed species CHEAL after post-emergence application (100=total damage to plant; 0=no damage to plant): Method A
How it was run: as §1

[6] = test system: Ipomoea hederacea (IPOHE); conditions: Application rate 500 g/Ha, evaluated after 13 days; for Control of weed species IPOHE after post-emergence application (100=total damage to plant; 0=no damage to plant): Method A
How it was run: as §1

[7] = 100=total damage to plant, 0=no damage

Compound	Control of weed species AMAPA after post-emergence application (100=total damage to plant; 0=no damage to plant) [1]	Control of weed species LOLPE after post-emergence application (100=total damage to plant; 0=no damage to plant) (Lolium perenne (LOLPE))	Control of weed species SETFA after post-emergence application (100=total damage to plant; 0=no damage to plant) (Setaria faberi (SETFA))	Control of weed species ELEIN after post-emergence application (100=total damage to plant; 0=no damage to plant) (Eleusine indica (ELEIN))	Control of weed species EPHHL after post-emergence application (100=total damage to plant; 0=no damage to plant) [2]	Control of weed species DIGSA after post-emergence application (100=total damage to plant; 0=no damage to plant) [3]	Control of weed species ECHCG after post-emergence application (100=total damage to plant; 0=no damage to plant) [4]	Control of weed species CHEAL after post-emergence application (100=total damage to plant; 0=no damage to plant) [5]	Control of weed species IPOHE after post-emergence application (100=total damage to plant; 0=no damage to plant) [6]	further results
O=C(O)c1ccnc(-c2cc[n+](CCCS(=O)(=O)[O-])nc2)n1 [Compound A146]	90	50	100	80	50	80	90	40	30	
Cc1n[n+](CCS(=O)(=O)[O-])ccc1-c1ncccn1 [Compound A88, 2-(3-methyl-4-pyrimidin-2-yl-pyridazin-1-ium-1-yl)ethanesulfonate]	100	60	70	90	60	90	60	70	30	
N#Cc1cnc(-c2cc[n+](CCS(=O)(=O)[O-])nc2)nc1 [Compound A25]	100	40	60	50	40	50	70	60	50	
Nc1cc(-c2cc[n+](CCS(=O)(=O)[O-])nc2)nc(N)n1 [Compound A187]										pest or weed control at 500 g/ha ([1]; Amaranthus palmeri, post-emergence, 312 h, 100=total damage to plant, 0=no damage, read-out: Control of weed species after post-emergence application, AMAPA): 50%; pest or weed control at 500 g/ha (Lolium perenne (LOLPE); Lolium perenne, post-emergence, 312 h, 100=total damage to plant, 0=no damage, read-out: Control of weed species after post-emergence application, LOLPE): 10%; pest or weed control at 500 g/ha (Setaria faberi (SETFA); Setaria faberi, post-emergence, 312 h, 100=total damage to plant, 0=no damage, read-out: Control of weed species after post-emergence application, SETFA): 10%; pest or weed control at 500 g/ha (Eleusine indica (ELEIN); Eleusine indica, post-emergence, 312 h, 100=total damage to plant, 0=no damage, read-out: Control of weed species after post-emergence application, ELEIN): 10%; pest or weed control at 500 g/ha ([2]; Euphorbia heterophylla, post-emergence, 312 h, 100=total damage to plant, 0=no damage, read-out: Control of weed species after post-emergence application, EPHHL): 50%; pest or weed control at 500 g/ha ([3]; Digitaria sanguinalis, post-emergence, 312 h, 100=total damage to plant, 0=no damage, read-out: Control of weed species after post-emergence application, DIGSA): 20%; pest or weed control at 500 g/ha ([4]; Echinochloa crus-galli, post-emergence, 312 h, 100=total damage to plant, 0=no damage, read-out: Control of weed species after post-emergence application, ECHCG): 20%; pest or weed control at 500 g/ha ([5]; Chenopodium album, post-emergence, 312 h, 100=total damage to plant, 0=no damage, read-out: Control of weed species after post-emergence application, CHEAL): 40%; pest or weed control at 500 g/ha ([6]; Ipomoea hederacea, post-emergence, 312 h, 100=total damage to plant, 0=no damage, read-out: Control of weed species after post-emergence application, IPOHE): 20%
O=c1cc(-c2cc[n+](CCCS(=O)(=O)[O-])nc2)nc[nH]1 [Compound A116]	100	10	30	20	50	30	20	80	10	
COC(=O)C[n+]1ccc(-c2ncccn2)cn1.[Br-] [Compound A2, methyl 2-(4-pyrimidin-2-ylpyridazin-1-ium-1-yl)acetate bromide]	60	0	80	30	90	40	50	20	10	
CCOP(=O)(CC[n+]1ccc(-c2ncccn2)cn1)OCC.O=C([O-])C(F)(F)F [Compound A124, 1-(2-diethoxyphosphorylethyl)-4-pyrimidin-2-yl-pyridazin-1-ium]	0	0	20	0	0	10	0	0	0	
O=P([O-])(O)C[n+]1ccc(-c2ccncn2)cn1 [Compound A236]										Control of weed species after post-emergence application, AMAPA [1, 7]: 90; Control of weed species after post-emergence application, LOLPE (Lolium perenne (LOLPE); [7]): 0; Control of weed species after post-emergence application, SETFA (Setaria faberi (SETFA); [7]): 30; Control of weed species after post-emergence application, ELEIN (Eleusine indica (ELEIN); [7]): 10; Control of weed species after post-emergence application, EPHHL [2, 7]: 30; Control of weed species after post-emergence application, DIGSA [3, 7]: 80; Control of weed species after post-emergence application, ECHCG [4, 7]: 50; Control of weed species after post-emergence application, CHEAL [5, 7]: 20; Control of weed species after post-emergence application, IPOHE [6, 7]: 40
